Read-outs that look alike come from different tables or passages of the source.
How the values were obtained:
[1] = tested on: estrogen-induced uterotrophic effect; assay: In vivo anti-estrogenic (anti-uterotrophic) activity, immature rat model; parameters: species or system Wistar immature female rats; conditions: oral, 20 mg/kg (tamoxifen 20 mg/kg/day, 6j equimolar per method), 3 days, with estradiol 10 μg/kg/day s.c.; immature female rats
Procedure: The anti-estrogenic activity was assessed as previously described.[65]−[67] All experiments were carried out in accordance with the recommendations of the […] Animal Care and Use Committee. The experimental protocol was approved by “The Commission on the Ethics of Scientific Research”, Faculty of Pharmacy, Minia University (no. ES30/2021). 20-day-old Wistar immature female rats (40–50 g) from the animal care facility of Nahda University at Beni Suef (NUB) were allowed to acclimatize to lab conditions for 3 days before the experiment with free access to food and water. Estradiol was diluted in olive oil and subcutaneously injected on the loose dorsal skin in a dose of 10 μg/kg/day. […] Both compounds were dissolved in a mixture of DMSO, Tween 20, and saline (1:1:8, respectively) and orally administered. The rats were randomly assigned to […] (n = 6) subjected to daily s.c. injections of estradiol, except for the control group. […] On the 4th day, all rats were sacrificed by cervical dislocation, and the uteri were dissected free of fat and weighed immediately. […] The results were expressed as percent inhibition from the formula [drawing 1] […] It is noteworthy that doses of the tested compounds are calculated on a molar basis. […] Values are expressed as mean ± SEM.

MCF-7 cells = assay: iCELLigence real-time cell analysis; format: cell-based, human; conditions: Homo sapiens, MCF7, MCF-7, 20 μM, relative to control, read-out: cell viability (% ± SEM)
Procedure: (§1) Therefore, compound 6j was applied in serial doses (2, 5, 10, 20, 50, and 100 μM) to MCF-7 cells and parallel to MCF-12A cells to determine the selectivity and safety. The treatments were performed 24 h after seeding the cells on system-specific biosensor-based plates. A total of 120 h of analyses were monitored, with cell viability measurements taken every 15 min. […] In addition, the viability percentage values for each dose in these periods were calculated and are summarized in Table 3 for MCF-7 and Table 4 for MCF-12A. […] In these treatments, cells were not killed dramatically after adding the highest two doses of 6j (100 and 50 μM); instead, they entered the stationary phase.
(§2) MCF-7 (Cat. no. HTB-22) (human estrogen receptor-positive breast cancer) and MCF-12A (Cat. no. CRL-10782) (human non-tumorigenic mammary epithelial) cell lines were obtained from the American Type Culture Collection (ATCC, Rockville, Maryland, USA). MCF-7 cells were maintained in Dulbecco’s modified Eagle’s medium (DMEM) (Biological Industries, Haemek, Israel) supplemented with 10% heat-inactivated fetal bovine serum (FBS) (Biowest, Nuaillé, France), 2 mM L-glutamine (Biological Industries, Haemek, Israel), 100 U/mL penicillin and 100 μg/mL streptomycin (Gibco, Waltham, MA, USA), and 2.5 μg/mL plasmocin (Invivogen, Toulouse, France) at 37 °C in a 5% CO2 humidified incubator. MCF-12A cells were cultured in a DMEM/F-12 Nutrient Mixture (Ham) (DMEM/F12 1:1 with HEPES and L-glutamine) (Gibco, Waltham, MA, USA) with 10% heat-inactivated FBS, 100 U/mL penicillin, 100 μg/mL streptomycin, and 10 μg/mL insulin (Humulin R, Lilly, Indianapolis, USA), 20 ng/mL epidermal growth factor (Abcam, Cambridge, UK), […] hydrocortisone (Dekort, Deva Ilac, Istanbul, Turkey), and 2.5 μg/mL plasmocin in a humidified atmosphere of 5% CO2 at 37 °C. The cells were routinely cultured in cell culture flasks and checked regularly under an inverted microscope. Cells reaching 80% confluency were passaged by treatment with 0.25% trypsin–EDTA. Total cell numbers were counted by the trypan blue dye exclusion method using a hemocytometer prior to the experiments.
(§3) The iCELLigence real-time cell analysis system was used to conduct a real-time and label-free examination of the activities of compound 6j on cells as we previously described.[62] In brief, following a background measurement with 200 μL of complete medium on iCELLigence E-plate L8, 100 μL of MCF-7 or MCF-12A cells was seeded at a density of 5.0 × 10^3 per well. During the 120 h monitoring, the system took impedance measurements via biosensors every 15 min. At the 24th h of incubation, the cells were treated with increasing concentrations of the 6j compound (2, 5, 10, 20, 50, and 100 μM) in duplicate. For cell culture experiments, compound 6j was dissolved in DMSO (Sigma, St. Louis, USA) at a stock concentration of 20 mM. For treatments, dilutions were prepared from 20 mM stock with a cell growth medium, with a final DMSO concentration of 0.1%. The medium containing 0.1% DMSO was also used as a negative control. […] Data were recorded by the iCELLigence software for 120 h and analyzed at the end of the study.

[2] = iCELLigence real-time cell analysis; format: cell-based, human; conditions: human, MCF-12A, 20 μM, relative to control, read-out: cell viability (% ± SEM)
Procedure: as §1, §2, §3

[3] = tested on: MCF-7 breast cancer cells; parameters: method as in doi:10.1016/j.bionut.2013.04.001; conditions: cited from earlier work

SMILES | anti-uterotrophic activity (inhibition of estrogen-induced uterine weight) [1] [%] | viability at 20 µM (MCF-7 cells; 24 h) [%] | viability at 20 µM (MCF-7 cells; 48 h) [%] | viability at 20 µM (MCF-7 cells; 72 h) [%] | viability at 20 µM (MCF-7 cells; 96 h) [%] | viability at 72 h, 20 µM ([2]; MCF-12A cells (non-tumorigenic mammary epithelial), 72 h) [%] | viability at 96 h, 20 µM ([2]; MCF-12A cells (non-tumorigenic mammary epithelial), 96 h) [%] | viability at 24 h, 20 µM ([2]; MCF-12A cells, 24 h) [%] | viability at 48 h, 20 µM ([2]; MCF-12A cells, 48 h) [%] | IC50 [3] [µM]
CC/C(=C(\c1ccccc1)c1ccc(OCCN(C)C)cc1)c1ccccc1 [tamoxifen, reference compound] | 50 | 86.84 ± 0.02 | 86.84 ± 0.02 | 85.59 ± 0.04 | 80.31 ± 0.07 | 84 ± 0.01 | 84 ± 0.01 | 84 ± 0.01 | 84 ± 0.01 | –
COc1ccc(C(=O)/C=C2/C(=O)Nc3ccc(Cl)cc32)cc1OC [Compound III] | – | – | – | – | – | – | – | – | – | 3.59
